A short description of the data set: gradient 5% acetonitrile 3 min, to 50% in 2 min, to 85% in 15 min, held 3 min, 100 µL/min. The settings on record: column: Zorbax Extend-C18 2.1 x 50 mm; eluents: water / acetonitrile, 0.1% formic acid. In a few lines: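 Data were gathered over 3 months by HPLC coupled to a quadrupole time-of-flight mass spectrometer, operated in positive and negative ionization mode. Mixtures of ~100 pure standards ran on a Zorbax Extend-C18 column (2.1 × 50 mm, 1.8 μm) at 100 μL/min, with water and acetonitrile each containing 0.1% formic acid and dead and dwell volumes of 40 μL and 900 μL. Retention time was read from adduct peaks picked by computer and checked manually.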
`CCc1noc(NC(C)=O)c1-c1ccc(C)c(S(=O)(=O)N2CC=C(c3ccccc3)CC2)c1` displayed an RP-LC retention time of 1020 s.
The same measure for `O=C(Cn1cnc2nc3c(cc2c1=O)CCCC3)Nc1ccccc1Br`: 732 s; for `CC(C)Cn1c(=O)c(-c2ccc(C(=O)NCc3cccnc3)cc2)nc2ccccc21`: 693 s.
Then `Cn1cnnc1SCCNC(=O)CNC(=O)c1ccc(=O)[nH]c1`, with 494 s; and `O=C(NCc1ccc2c(c1)OCO2)c1ccc(OCC(=O)C2CC2)cc1`, with 736 s.
Then `Cn1c(=O)n(C)c2cc(S(=O)(=O)c3ccc(F)cc3)c(NC(=O)c3ccccc3)cc21`, with 885 s.
The molecule `Cc1ccc(C)c(NC(=O)C2CCN(S(=O)(=O)c3cc(-c4noc(C5CC5)n4)cs3)CC2)c1` yielded an RP-LC retention time of 1020 s.
Turning to `COc1ccc(Cl)cc1NC(=O)C1CC(=O)N(c2ccc3c(c2)CCN3C(C)=O)C1` (stereo not drawn), the RP-LC retention time was determined as 774 s.
Then `OC(CNCc1ccc(-c2ccc(F)cc2)o1)c1ccccc1` (stereo not drawn), with 687 s.
The same measure for `Cc1c(C(=O)N2CCN(C(=O)c3ccco3)CC2)[nH]c2ccccc12`: 729 s; for `Cc1cccc(NS(=O)(=O)c2ccc(-c3c(C)noc3C)cc2)c1C`: 997 s; for `NC(=O)C1CCN(C(=O)c2cc3cccnc3n(Cc3ccccc3F)c2=O)CC1`: 666 s.
In turn, `Cn1ccc(C(=O)N2CCNC(=O)C2(C)C)n1` had an RP-LC retention time of 527 s.
The same measure for `COCCNCc1ccc(-c2cc(Cl)ccc2Cl)o1`: 684 s; for `c1ccc(-n2ncc3c(Nc4ccc5c(c4)OCO5)nc(N4CCCC4)nc32)cc1`: 1350 s.
With `COC(=O)c1ccc(Cl)cc1NC(=O)N1CCCn2nc(-c3cccnc3)cc2C1`, the RP-LC retention time came to 758 s.
The same measure for `CCCN1C(=O)COc2ccc(-c3noc(-c4cccc(NC(=O)c5ccco5)c4)n3)cc21`: 1100 s; for `O=C(CSc1ccc(N2CCCC(C(=O)NC3CC3)C2)nn1)Nc1cccc(C(F)(F)F)c1` (stereo not drawn): 687 s.
Then `Cc1ccc(C)c(N2CCN(C(=O)Cn3nc(C(=O)N4CCCC4)c4ccccc43)CC2)c1`, with 1040 s; and `O=C(NCc1ccccc1)C1CCCN(c2ncnc3c2nc2n3CCCCC2)C1` (stereo not drawn), with 732 s.
`COc1ccc(CNC(=O)C2CCCN(c3ncnc4c3oc3ccccc34)C2)c(OC)c1` (stereo not drawn): the RP-LC retention time came out at 754 s.
The same measure for `CC1(C)CS(=O)(=O)N(c2ccc(C(=O)N3CCN(c4ccccn4)CC3)cc2)C1=O`: 608 s; for `CN(C)c1ccc2c(c1)CN(C(=O)C1CCC1)CCO2`: 590 s.
Take `CCc1nc2cc(-c3noc(-c4n[nH]c5c4CCCC5)n3)ccc2o1`: the RP-LC retention time worked out at 1000 s.
Then `CC1CCN(S(=O)(=O)c2ccc(-c3nnc(C(=O)NC4CC4)o3)cc2)CC1`, with 876 s; and `CC(=O)N1CCc2cc(N3CC(C(=O)NC4CCCC4)CC3=O)ccc21` (stereo not drawn), with 642 s.
In turn, `Cc1ccc(C)c(C(=O)N2CCc3c(c(-c4nc(C5CC5)no4)nn3C)C2)c1` gave an RP-LC retention time of 854 s.
Then `Cc1ccc(NC(=O)Cn2c(C(C)C)nc3c(c2=O)CCN(Cc2ccccc2)C3)cc1`, with 714 s; and `CN(C)S(=O)(=O)c1ccc2c(c1)N(CC(=O)NCCCc1ccccc1)C(=O)C1CCCCN21` (stereo not drawn), with 955 s.
Then `Cc1ccc(C)c(-c2nc(-c3cccc(-c4ccnn4C)c3)no2)c1`, with 1110 s; and `Cc1noc(-c2ccnc(-n3ncc(C(=O)N4CCC(C)CC4)c3C)c2)n1`, with 946 s; and `COc1cc(=O)n2c(c1C(=O)NC1CCc3ccccc31)CCCC2` (stereo not drawn), with 686 s.
The same measure for `COC(=O)c1c(NCc2ccccc2C(F)(F)F)c2cccc(Cl)c2[nH]c1=O`: 879 s.
In the case of `CCNC(=O)C1CCN(C(=O)Nc2ccc(NC(=O)Nc3ccccc3F)cc2)CC1`, the RP-LC retention time worked out at 686 s.
Regarding `O=C(CSc1cc(N2CCN(c3ccccc3F)CC2)ncn1)NC1CCCCC1`, the RP-LC retention time stood at 1050 s.
The molecule `C=CCNC(=O)c1cn(-c2ccc(-c3nc(C4CC4)no3)cn2)cn1` registered an RP-LC retention time of 788 s.
The same measure for `Cc1cn2c(=O)c(S(=O)(=O)N3CCN(c4ccccn4)CC3)c(C)nc2s1`: 601 s.
Then `COc1ccc(N2CCN(C(=O)c3[nH]c(C)c(S(=O)(=O)N4CCC(C)CC4)c3C)CC2)cc1`, with 896 s; and `CCCn1cc(S(=O)(=O)Nc2cc(OC)cc(OC)c2)c2cccnc21`, with 860 s.
The same measure for `Cc1cc(OCC(=O)N2CCC3(O)CCCCC3C2)c2c(C)c(C)c(=O)oc2c1` (stereo not drawn): 798 s; for `CS(=O)(=O)Nc1cccc(NC(=O)CN2CCN(c3ccc4c(c3)OCCO4)C2=O)c1`: 657 s.
`N#Cc1cccc(-c2cn3c(n2)N(C(=O)c2cccnc2)CCC3)c1` came in with an RP-LC retention time of 641 s.
The same measure for `CC(C)NC(=O)c1ccc(OCC2CCN(C(=O)Cc3cccs3)CC2)cc1`: 822 s; for `CC(C)c1noc(-c2cccnc2N2CCCN(Cc3cccc(F)c3)CC2)n1`: 708 s.
Molecule `COc1cc(OC)cc(-c2nc(-c3cccc(-c4ccnn4C)c3)no2)c1` registered an RP-LC retention time of 1160 s.
The same measure for `Cc1cc(C(=O)NCc2ccc(F)cc2)nc2cc(-c3cccs3)nn12`: 1090 s; for `CCN(Cc1ccccc1)C(=O)c1ncn2c1C(=O)N(C1CC1)C(C)(C(=O)NCc1ccccc1)C2` (stereo not drawn): 742 s; for `CS(=O)(=O)N1CCC(C(=O)NC2CCCCCC2)Oc2ccc(Cl)cc21` (stereo not drawn): 991 s.
The same measure for `CCN1CCN(C2CCN(C(=O)c3ccco3)CC2)C1=O`: 627 s; for `COCC(C)(O)CNC(=O)C(=O)NCc1ccc(C)cc1` (stereo not drawn): 674 s.
Then `CCCn1c(=O)sc2cc(S(=O)(=O)N3CCC(C(=O)NCc4ccco4)CC3)ccc21`, with 848 s.
For the molecule `CCc1cc(C(=O)Nc2cc(Cl)ccc2OC)nc2ccnn12`, the RP-LC retention time worked out at 1210 s.
Then `CCN1C=C(C(=O)OCc2cc(F)ccc2F)C(C)=NS1(=O)=O`, with 975 s.
The molecule `O=C(NCCc1c[nH]c2ccccc12)c1cc(S(=O)(=O)N2CCCCC2)ccc1Cl` returned an RP-LC retention time of 966 s.
The same measure for `COC(=O)c1c(C)[nH]c(C(=O)N2CCCC(C(=O)N3CCN(c4ccc(OC)cc4)CC3)C2)c1C` (stereo not drawn): 707 s; for `CCNC(=O)NC1CCN(c2ccc(C)cc2)C1=O` (stereo not drawn): 671 s; for `CCN1CCN(c2cc(C)c3cc(NC(=O)/C=C/c4ccc(OC(C)C)cc4)ccc3n2)CC1`: 646 s.
`NC(=O)C1CCN(C(=O)Cc2cc(-c3ccc(F)cc3)on2)CC1`: the RP-LC retention time turned out to be 630 s.

For the origin of these results see the METLIN SMRT retention time set (Domingo-Almenara et al. 2019).
